Each structure is given as a SMILES string.

The target of the assay is GPR120 receptor (Homo sapiens (Human), UniProt Q5NUL3). Kind of assay: Beta (β) arrestin 2 Interaction Assay (BRET assay), β-galactosidase enzyme fragment complementation. Format: cell-based. As to conditions: CHO-K1 cells stably expressing the GPR120 receptor; β-arrestin recruitment; 2 hours incubation; 30 μM to 1 nM. On the procedure: Beta (β) arrestin 2 Interaction Assay (BRET assay) was performed using CHO-K1 cells stably expressing the GPR120 receptor using β-galactosidase (Beta gal) enzyme fragment complementation assay. The measurement of GPR120 activation upon agonist activation was directly provided by β-arrestin recruitment. One day before the β-arrestin 2 assay, CHO-K1 cells were seeded and incubated overnight at 37° C. in a 5% CO2 humidified atmosphere. Cells were treated with the test compounds in the various concentrations ranging from 30 μM to 1 nM and incubated for 2 hours for GPCR (GPR120) activation. Extent of Arrestin recruitment was measured by adding detection reagents for Beta gal complementation assay and was further incubated for 1 hour. The chemi-luminescent signal was detected on Polar Star (BMG Labtech). The dose-response curve was analyzed using Sigma Plot/Graph Pad. The EC50 (concentration of the test compounds where 50% of compounds' maximal activity is observed) values were calculated from the dose-response curve.
Sequence of GPR120 receptor (Q5NUL3 whole entry, the tested form may be a part): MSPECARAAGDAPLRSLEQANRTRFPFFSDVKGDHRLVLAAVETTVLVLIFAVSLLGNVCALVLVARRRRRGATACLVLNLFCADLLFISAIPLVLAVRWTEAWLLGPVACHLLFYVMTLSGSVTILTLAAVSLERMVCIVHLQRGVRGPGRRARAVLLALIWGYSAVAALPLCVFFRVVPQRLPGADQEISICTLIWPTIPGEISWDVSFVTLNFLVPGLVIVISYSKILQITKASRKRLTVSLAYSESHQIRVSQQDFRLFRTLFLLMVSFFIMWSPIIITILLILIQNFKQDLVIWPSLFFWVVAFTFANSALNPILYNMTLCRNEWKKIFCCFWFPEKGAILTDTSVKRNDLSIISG
Sequence of GPR120 receptor (P32121 whole entry partner, the tested form may be a part): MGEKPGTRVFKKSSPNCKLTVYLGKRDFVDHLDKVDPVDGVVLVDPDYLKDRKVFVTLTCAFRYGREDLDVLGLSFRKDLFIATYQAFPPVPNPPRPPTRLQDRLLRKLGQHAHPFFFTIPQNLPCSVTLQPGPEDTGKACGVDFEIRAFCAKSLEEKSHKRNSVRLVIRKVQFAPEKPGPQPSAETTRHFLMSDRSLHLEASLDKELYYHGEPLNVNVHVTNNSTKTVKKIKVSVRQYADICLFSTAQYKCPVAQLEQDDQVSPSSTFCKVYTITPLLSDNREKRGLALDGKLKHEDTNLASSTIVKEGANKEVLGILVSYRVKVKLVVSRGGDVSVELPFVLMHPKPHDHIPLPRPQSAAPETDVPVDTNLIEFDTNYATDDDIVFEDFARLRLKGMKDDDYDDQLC
In general terms: BRET reads energy transfer from a luciferase to a nearby fluorophore.
On to `N#CC1(c2ccc(C3=C(COc4ccc(CCCC(=O)O)cc4)CCCC3)cc2)CC1` [Example 1, 4-(4-((4′-(1-cyanocyclopropyl)-3,4,5,6-tetrahydro-[1,1′-biphenyl]-2-yl)methoxy)phenyl) butanoic Acid], for which the concentration giving a half-maximal response (EC50) was 500 to 5000 nM.
With `O=C(O)CCCc1ccc(OCC2=C(c3nc4c(s3)CCCC4)CCCC2)cc1` [Example 4, 4-(4-((2-(4,5,6,7-tetrahydrobenzo[d]thiazol-2-yl)cyclohex-1-en-1-yl)methoxy)phenyl) butanoic Acid], the concentration giving a half-maximal response (EC50) lay within 500 to 5000 nM.
In turn, `COc1ccc(C2=C(COc3ccc(CCCC(=O)O)cc3)CCCC2)cc1` [Example 6, 4-(4-((4′-methoxy-3,4,5,6-tetrahydro-[1,1′-biphenyl]-2-yl)methoxy)phenyl)butanoic Acid] had an EC50 of 500 to 5000 nM.
`O=C(O)CCCc1ccc(OCC2=C(c3ccc(C4CC4)cc3)CCCC2)cc1` [Example 7, 4-(4-((4′-cyclopropyl-3,4,5,6-tetrahydro-[1,1′-biphenyl]-2-yl)methoxy)phenyl)butanoic Acid] came in with an EC50 of 50 to 500 nM.
`Nc1ncc(C2=C(COc3ccc(CCCC(=O)O)cc3)CCCC2)cc1C(F)(F)F` [Example 8, 4-(4-((2-(6-amino-5-(trifluoromethyl)pyridin-3-yl)cyclohex-1-en-1-yl)methoxy)phenyl)butanoic Acid] gave a concentration giving a half-maximal response (EC50) of 500 to 5000 nM.
`O=C(O)CCCc1ccc(OCC2=C(c3ccc4c(c3)CCCC4)CCCC2)cc1` [Example 9, 4-(4-((2-(5,6,7,8-tetrahydronaphthalen-2-yl)cyclohex-1-en-1-yl)methoxy)phenyl) butanoic Acid] had an EC50 of 50 to 500 nM.
As for `O=C(O)CCCc1ccc(OCC2=C(C3=CCCCC3)CCCC2)cc1` [Example 10, 4-(4-([1,1′-bi(cyclohexane)]-1,1′-dien-2-ylmethoxy)phenyl) butanoic Acid], the figure is 500 to 5000 nM; as for `COc1ccc(C2=C(COc3ccc(CCCC(=O)O)cc3)CCCC2)cn1` [Example 14, 4-(4-((2-(6-methoxypyridin-3-yl)cyclohex-1-en-1-yl)methoxy)phenyl) butanoic Acid], 500 to 5000 nM; as for `Cc1ccc(C2=C(COc3ccc(CCCC(=O)O)cc3)CCCC2)cc1` [Example 15, 4-(4-((4′-methyl-3,4,5,6-tetrahydro-[1,1′-biphenyl]-2-yl)methoxy)phenyl) butanoic Acid], 50 to 500 nM.
Then `N#CC1(c2ccc(C3=C(COc4ccc(CCCC(=O)O)cc4)CCCCC3)cc2)CC1` [Example 21, 4-(4-((2-(4-(1-cyanocyclopropyl)phenyl)cyclohept-1-en-1-yl)methoxy)phenyl) butanoic Acid], with 500 to 5000 nM; and `Cc1ccc(C2=C(COc3ccc(CCCC(=O)O)cc3)CCCCC2)cc1` [Example 22, 4-(4-((2-(p-tolyl)cyclohept-1-en-1-yl)methoxy)phenyl)butanoic Acid], with 50 to 500 nM; and `N#CC1(c2ccc(C3=C(COc4ccc(CCCC(=O)O)cc4)COCC3)cc2)CC1` [Example 48, 4-(4-((4-(4-(1-cyanocyclopropyl)phenyl)-5,6-dihydro-2H-pyran-3-yl)methoxy)phenyl) butanoic Acid], with 500 to 5000 nM.
Take `O=C(O)CCCc1ccc(OCC2=C(c3ccc4c(c3)CCCC4)CCOC2)cc1` [Example 49, 4-(4-((4-(5,6,7,8-tetrahydronaphthalen-2-yl)-5,6-dihydro-2H-pyran-3-yl)methoxy)phenyl) butanoic Acid]: the EC50 lay in the range of 500 to 5000 nM.
Then `Cc1ccc(OC2=C(COc3ccc(CCCC(=O)O)cc3)CCCC2)cc1` [Example 50, 4-(4-((2-(p-tolyloxy)cyclohex-1-en-1-yl)methoxy)phenyl)butanoic Acid], with 500 to 5000 nM.
`CC1CCC(c2ccc(C3(C#N)CC3)cc2)=C(COc2ccc(CCCC(=O)O)cc2)C1` (stereo not shown) [Example 53, 4-(4-((4′-(1-cyanocyclopropyl)-4-methyl-3,4,5,6-tetrahydro-[1,1′-biphenyl]-2-yl)methoxy)phenyl)butanoic Acid] gave a concentration giving a half-maximal response (EC50) of 500 to 5000 nM.
The molecule `Cc1ccc(C2=C(COc3ccc(CCCC(=O)O)cc3)CC(F)CC2)cc1` (stereo not shown) [Example 54, 4-(4-((4-fluoro-4′-methyl-3,4,5,6-tetrahydro-[1,1′-biphenyl]-2-yl)methoxy)phenyl) butanoic Acid] showed a half-maximal effective concentration (EC50) of 500 to 5000 nM.

For orientation: EC50 means the concentration at which the effect is half-maximal. Read a low EC50 as greater potency.
